Read-outs that look alike come from different tables or passages of the source.
Legend:
[1] = test system: patients with newly diagnosed glioblastoma
Text: The phase Ib, dose-escalation part of this study explored escalating oral doses of trotabresib in combination with TMZ in the adjuvant setting and with TMZ plus RT in the concomitant setting. […] Dose-escalation decisions were made by the safety review committee, based on all available safety, pharmacokinetics, pharmacodynamics, and preliminary efficacy information, and a calculation of risk assessment using a Bayesian logistic regression model.
The primary endpoints of the study were to determine the safety and tolerability, maximum tolerated dose, and/or recommended phase II dose (RP2D) of trotabresib in combination with TMZ as adjuvant therapy, and with TMZ and RT as concomitant therapy. […] Trotabresib pharmacodynamics was an exploratory endpoint.
Adverse events (AEs) were classified using the Medical Dictionary for Regulatory Activities v18.1 or higher system organ class and preferred term. Severity of AEs was graded based on the patient’s symptoms according to the National Cancer Institute Common Terminology Criteria for Adverse Events v5.0.[35] Dose-limiting toxicities (DLTs) were defined as any of the toxicities described in Supplementary Table S2 occurring within the DLT assessment period (cycle 1 [28 days]), unless the event could clearly be determined to be unrelated to trotabresib. Screening MRI scans were performed after surgical resection and within 28 days (+3 days) prior to initiation of study treatment. Subsequent tumor assessments by MRI or CT were performed at week 10 during the concomitant treatment period and at the end of every other treatment cycle from cycle 2 onwards during the adjuvant and trotabresib monotherapy treatment periods. Best overall response (BOR) was evaluated as complete response (CR), partial response (PR), SD, progressive disease (PD), or not evaluable, according to Response Assessment in Neuro-Oncology criteria for high-grade glioma.[36] Plasma samples were collected during the first treatment cycle for investigation of trotabresib pharmacokinetics and pharmacodynamics. Plasma pharmacokinetic parameters assessed included peak plasma concentration (Cmax), time to peak plasma concentration (tmax), area under the plasma concentration–time curve (AUC), and terminal half-life (t½). Pharmacodynamic markers assessed included blood levels of CCR1 and HEXIM1 mRNA, which are established markers of BET inhibitor target engagement.[17],[22],[37],[38]

breast cancer cells = test system: breast cancer cells; set-up: method as in PMID 32848091; conditions: cited from earlier work
[2] = adjuvant overall (N = 18), related to labelled drug(s)
[3] = concomitant overall (N = 14), related to labelled drug(s)

SMILES: Cn1nnc2c(C(N)=O)ncn2c1=O [TMZ, temozolomide]
- ALT increased TRAE, grade 3/4 [1, 2]: 1 (6) n (%)
- AST increased TRAE, any grade [1, 2]: 2 (11) n (%)
- AST increased TRAE, grade 3/4 [1, 2]: 0 n (%)
- Acneiform dermatitis TRAE, any grade [1, 2]: 1 (6) n (%)
- Acneiform dermatitis TRAE, grade 3/4 [1, 2]: 0 n (%)
- Anemia TRAE, any grade [1, 2]: 3 (17) n (%)
- Anemia TRAE, grade 3/4 [1, 2]: 0 n (%)
- Any TRAE, any grade [1, 2]: 17 (94) n (%)
- Any TRAE, grade 3/4 [1, 2]: 10 (56) n (%)
- Asthenia TRAE, any grade [1, 2]: 6 (33) n (%)
- Asthenia TRAE, grade 3/4 [1, 2]: 1 (6) n (%)
- Blood bilirubin increased TRAE, any grade [1, 2]: 0 n (%)
- Blood bilirubin increased TRAE, grade 3/4 [1, 2]: 0 n (%)
- Decreased appetite TRAE, any grade [1, 2]: 6 (33) n (%)
- Decreased appetite TRAE, grade 3/4 [1, 2]: 0 n (%)
- Diarrhea TRAE, any grade [1, 2]: 5 (28) n (%)
- Diarrhea TRAE, grade 3/4 [1, 2]: 0 n (%)
- Dysgeusia TRAE, any grade [1, 2]: 4 (22) n (%)
- Dysgeusia TRAE, grade 3/4 [1, 2]: 0 n (%)
- Dyspepsia TRAE, any grade [1, 2]: 2 (11) n (%)
- Dyspepsia TRAE, grade 3/4 [1, 2]: 0 n (%)
- Fatigue TRAE, any grade [1, 2]: 2 (11) n (%)
- Fatigue TRAE, grade 3/4 [1, 2]: 0 n (%)
- Hyperbilirubinemia TRAE, any grade [1, 2]: 3 (17) n (%)
- Hyperbilirubinemia TRAE, grade 3/4 [1, 2]: 0 n (%)
- Hyperglycemia TRAE, any grade [1, 2]: 1 (6) n (%)
- Hyperglycemia TRAE, grade 3/4 [1, 2]: 0 n (%)
- Hypophosphatemia TRAE, any grade [1, 2]: 1 (6) n (%)
- Hypophosphatemia TRAE, grade 3/4 [1, 2]: 0 n (%)
- Hypotension TRAE, any grade [1, 2]: 0 n (%)
- Hypotension TRAE, grade 3/4 [1, 2]: 0 n (%)
- Insomnia TRAE, any grade [1, 2]: 1 (6) n (%)
- Insomnia TRAE, grade 3/4 [1, 2]: 0 n (%)
- Intracranial hemorrhage TRAE, any grade [1, 2]: 0 n (%)
- Intracranial hemorrhage TRAE, grade 3/4 [1, 2]: 0 n (%)
- Leukopenia TRAE, any grade [1, 2]: 2 (11) n (%)
- Leukopenia TRAE, grade 3/4 [1, 2]: 0 n (%)
- Lymphopenia TRAE, any grade [1, 2]: 2 (11) n (%)
- Lymphopenia TRAE, grade 3/4 [1, 2]: 1 (6) n (%)
- Nausea TRAE, any grade [1, 2]: 12 (67) n (%)
- Nausea TRAE, grade 3/4 [1, 2]: 0 n (%)
- Neutropenia TRAE, any grade [1, 2]: 7 (39) n (%)
- Neutropenia TRAE, grade 3/4 [1, 2]: 4 (22) n (%)
- Pruritus TRAE, any grade [1, 2]: 0 n (%)
- Pruritus TRAE, grade 3/4 [1, 2]: 0 n (%)
- Rash TRAE, any grade [1, 2]: 1 (6) n (%)
- Rash TRAE, grade 3/4 [1, 2]: 0 n (%)
- Seizure TRAE, any grade [1, 2]: 0 n (%)
- Seizure TRAE, grade 3/4 [1, 2]: 0 n (%)
- Thrombocytopenia TRAE, any grade [1, 2]: 13 (72) n (%)
- Thrombocytopenia TRAE, grade 3/4 [1, 2]: 9 (50) n (%)
- Vomiting TRAE, any grade [1, 2]: 7 (39) n (%)
- Vomiting TRAE, grade 3/4 [1, 2]: 0 n (%)
- ALT increased TRAE, any grade [1, 3]: 1 (7) n (%)
- ALT increased TRAE, grade 3/4 [1, 3]: 1 (7) n (%)
- AST increased TRAE, any grade [1, 3]: 1 (7) n (%)
- AST increased TRAE, grade 3/4 [1, 3]: 0 n (%)
- Acneiform dermatitis TRAE, any grade [1, 3]: 2 (14) n (%)
- Acneiform dermatitis TRAE, grade 3/4 [1, 3]: 0 n (%)
- Anemia TRAE, any grade [1, 3]: 4 (29) n (%)
- Anemia TRAE, grade 3/4 [1, 3]: 2 (14) n (%)
- Any TRAE, any grade [1, 3]: 14 (100) n (%)
- Any TRAE, grade 3/4 [1, 3]: 9 (64) n (%)
- Asthenia TRAE, any grade [1, 3]: 4 (29) n (%)
- Asthenia TRAE, grade 3/4 [1, 3]: 0 n (%)
- Blood bilirubin increased TRAE, any grade [1, 3]: 1 (7) n (%)
- Blood bilirubin increased TRAE, grade 3/4 [1, 3]: 0 n (%)
- Decreased appetite TRAE, any grade [1, 3]: 4 (29) n (%)
- Decreased appetite TRAE, grade 3/4 [1, 3]: 0 n (%)
- Diarrhea TRAE, any grade [1, 3]: 3 (21) n (%)
- Diarrhea TRAE, grade 3/4 [1, 3]: 0 n (%)
- Dysgeusia TRAE, any grade [1, 3]: 4 (29) n (%)
- Dysgeusia TRAE, grade 3/4 [1, 3]: 0 n (%)
- Dyspepsia TRAE, any grade [1, 3]: 2 (14) n (%)
- Dyspepsia TRAE, grade 3/4 [1, 3]: 0 n (%)
- Fatigue TRAE, any grade [1, 3]: 5 (36) n (%)
- Fatigue TRAE, grade 3/4 [1, 3]: 1 (7) n (%)
- Hyperbilirubinemia TRAE, any grade [1, 3]: 2 (14) n (%)
- Hyperbilirubinemia TRAE, grade 3/4 [1, 3]: 0 n (%)
- Hyperglycemia TRAE, any grade [1, 3]: 0 n (%)
- Hyperglycemia TRAE, grade 3/4 [1, 3]: 0 n (%)
- Hypophosphatemia TRAE, any grade [1, 3]: 1 (7) n (%)
- Hypophosphatemia TRAE, grade 3/4 [1, 3]: 0 n (%)
- Hypotension TRAE, any grade [1, 3]: 0 n (%)
- Hypotension TRAE, grade 3/4 [1, 3]: 0 n (%)
- Insomnia TRAE, any grade [1, 3]: 0 n (%)
- Insomnia TRAE, grade 3/4 [1, 3]: 0 n (%)
- Intracranial hemorrhage TRAE, any grade [1, 3]: 0 n (%)
- Intracranial hemorrhage TRAE, grade 3/4 [1, 3]: 0 n (%)
- Leukopenia TRAE, any grade [1, 3]: 1 (7) n (%)
- Leukopenia TRAE, grade 3/4 [1, 3]: 0 n (%)
- Lymphopenia TRAE, any grade [1, 3]: 3 (21) n (%)
- Lymphopenia TRAE, grade 3/4 [1, 3]: 1 (7) n (%)
- Nausea TRAE, any grade [1, 3]: 11 (79) n (%)
- Nausea TRAE, grade 3/4 [1, 3]: 0 n (%)
- Neutropenia TRAE, any grade [1, 3]: 6 (43) n (%)
- Neutropenia TRAE, grade 3/4 [1, 3]: 4 (29) n (%)
- Pruritus TRAE, any grade [1, 3]: 0 n (%)
- Pruritus TRAE, grade 3/4 [1, 3]: 0 n (%)
- Rash TRAE, any grade [1, 3]: 0 n (%)
- Rash TRAE, grade 3/4 [1, 3]: 0 n (%)
- Seizure TRAE, any grade [1, 3]: 0 n (%)
- Seizure TRAE, grade 3/4 [1, 3]: 0 n (%)
- Thrombocytopenia TRAE, any grade [1, 3]: 10 (71) n (%)
- Thrombocytopenia TRAE, grade 3/4 [1, 3]: 7 (50) n (%)
- Vomiting TRAE, any grade [1, 3]: 8 (57) n (%)
- Vomiting TRAE, grade 3/4 [1, 3]: 0 n (%)
- ALT increased TRAE, any grade ([1]; human, in vivo): 2 (11) n (%)
- TEAEs leading to discontinuation of the labelled study drug(s), patients ([1]; human, in vivo): 2 (11) 2 (11) 2 (11) n (%)
- TRAEs leading to discontinuation of TMZ, related to labelled drug(s) ([1]; human, in vivo): 1 (6) 1 (6) 1 (6) n (%)
- TRAEs leading to discontinuation of any study drug, related to labelled drug(s) ([1]; human, in vivo): 1 (6) 1 (6) 1 (6) n (%)
- TRAEs leading to discontinuation of trotabresib, related to labelled drug(s) ([1]; human, in vivo): 1 (6) 1 (6) 1 (6) n (%)

SMILES: CCNC(=O)C[C@@H]1N=C(c2ccc(Cl)cc2)c2cc(OC)ccc2-n2c(C)nnc21 [iBET-762]
- Expression of the HER2-regulated gene TUBB3 (breast cancer cells): upregulated expression
- Sensitivity to vinorelbine (breast cancer cells; in vitro and in PDX models): increased sensitivity to vinorelbine
